Measurements reported in patent publication US7183316B2, “Treatment of HPV caused diseases” (Cornell Research Foundation, Inc., priority 2001, dated 2007).

Columns and labels:
HPV16 E7 protein = assay: Western blotting for HPV16 E7 protein in CaSki cells; assay type: cell-based; conditions: 24 hours incubation, concentration series in μM
Experimental: (§1) Ciglitazone was incubated with CaSki cells (prototypic cervical cancer cells known to be infected with HPV16). The number of CaSki cells was 3×10^6 in a 10 cm diameter dish. Incubation were carried out for 24 hours with 0, 1, 5, 10 and 20 μM ciglitazone.
(§2) Western blotting was carried out to determine levels of HPV16 E7 protein. […] Northern blotting was carried out to determine levels of HPV16 E7 mRNA. […] Nuclear run-off testing was carried out to determine level of gene transcription.
(§3) Celebrex™ at concentrations of 0, 0.1, 0.25, 0.5, 1.0, 2.5 and 5.0 μM was incubated with CaSki cell (3.0×10^6 in a 10 cm diameter dish) for 24 hours.

HPV16 E6 mRNA = assay: Northern blotting for HPV16 E6 mRNA in CaSki cells; assay type: cell-based; conditions: for levels of HPV16 E6 mRNA (Northern blot): CaSki cells, 24 hours incubation, concentration series in μM; for HPV16 E6 mRNA (Northern blot): Background Example 7: CaSki cells, 24 hours, curcumin 5 μM, resveratrol 15 μM, ciglitazone 20 μM, 15d-PGJ2 15 μM
Experimental: as §3
Curcumin (5 μM), resveratrol (15 μM), ciglitazone (20 μM) or 15d-PGJ2 (15 μM) were incubated with CaSki cells (3×10^6 in a 10 cm diameter dish) for 24 hours.
Northern blot testing was carried our for HPV16 E6 mRNA.

[1] = system: HPV16 upstream regulatory region (URR); assay: HPV16 upstream regulatory region luciferase reporter transfected into CaSki cells; assay type: cell-based; conditions: 24 hours, 0-25 μM, FIG. 1
Experimental: HPV16 upstream regulatory region (URR) ligated to luciferase gene transfected into CaSki cells is incubated for 24 hours with ciglitazone and with 15d-PGJ2 (in each case, concentration of 0 μM, 5 μM, 10 μM, 15 μM, 20 μM and 25 μM). […] Note that cells contain endogenous activator that drives expression of E7, and ciglitazone and 15d-PGJ2 are shown to inhibit the activation.

HPV16 E7 mRNA [2] = assay: EGF-mediated induction of HPV16 E7 mRNA in CaSki cells (Northern blot); assay type: cell-based; conditions: for EGF-mediated induction of HPV16 E7 mRNA (Northern blot): Background Example 5: EGF 10 nanograms/ml, 50 or 100 μM sulindac sulfide, 15 μM ciglitazone, 15 μM 15d-PGJ2; for EGF-mediated induction of HPV16 E7 (Northern blot, mRNA): Background Example 6: EGF 10 nanograms/ml, 100 μM NSAID, 25 μM 15d-PGJ2
Experimental: Epidermal growth factor at 10 nanograms/ml was added to CaSki cells (3×10^6 in a 10 cm diameter dish) together with 50 μM sulindac sulfide or 100 μM sulindac sulfide or 15 μM ciglitazone or 15 μM 15d-PGJ2.
Northern blot testing was carried out for HPV16 E7 mRNA.
Epidermal growth factor (EGF) at 10 nanograms/ml was incubated with CaSki cells (3×10^6 in a 10 cm diameter dish) and 100 μM ibuprofen, 100 μM piroxicam, 100 μM S-naproxen, 100 μM aspirin, 100 μM sulindac sulfone, 100 μM sulindac sulfide, 100 μM naproxen, 100 μM indomethacin, 100 μM flufenamic acid and for comparison purposes 25 μM 15d-PGJ2.

HPV16 E7 mRNA [3] = assay: Northern blotting for HPV16 E7 mRNA in CaSki cells; assay type: cell-based; conditions: 24 hours incubation, concentration series in μM
Experimental: as §1, §2
NS-398 at concentrations of 0, 10, 20, 40, 60, 100, 250 and 500 μM was incubated with CaSki cells (3×10^6 in a 10 cm diameter dish) for 24 hours.
Northern blotting was carried out to determine HPV16 E7 mRNA levels in each case.

HPV16 [4] = assay: Treatment of patient with cervical intraepithelial neoplasia; assay type: in vivo, human; conditions: 25 mg orally each day for six months
Experimental: A person presents to their gynecologist for evaluation. […] On biopsy, the patient is found to have cervical intraepithelial neoplasia. HPV16 is detected. Treatment with Vioxx™ 25 mg orally each day is begun and given for six months. […] The Vioxx™ is discontinued with no recurrence of cervical intraepithelial neoplasia.

HPV16 [5] = assay: Treatment of patient with metastasized cervical cancer; assay type: in vivo, human; conditions: 50 mg orally three times a day for 12 months plus radiation therapy after hysterectomy
Experimental: A person seeks gynecologic evaluation because of pelvic pain. On pelvic examination, a cervical mass is detected. […] The patient undergoes a hysterectomy along with resection of regional lymph nodes. […] HPV16 is detected. The patient is treated with a course of radiation therapy plus indomethacin 50 mg orally three times a day for 12 months. […] The indomethacin is discontinued.

[6] = system: HPV mediated cutaneous warts; assay: Topical treatment of patient with HPV mediated cutaneous warts; assay type: in vivo, human; conditions: ointment containing 5%, twice a day, three months
Excerpt: A child presents to a local dermatologist because of small cutaneous growths on the hand. A diagnosis of HPV mediated cutaneous warts is made. The patient is instructed to apply an ointment containing 5% rosiglitazone to the affected areas twice a day. […] The same results occur with an ointment containing 5% resveratrol instead of the ointment containing rosiglitazone.

Row | SMILES | levels of HPV16 E7 protein (Western blot) (HPV16 E7 protein) | levels of HPV16 E6 mRNA (Northern blot) (HPV16 E6 mRNA) | EGF-mediated induction of HPV16 E7 (Northern blot, mRNA) (HPV16 E7 mRNA [2]) | other results
1 | NS(=O)(=O)c1ccc(-n2nc(C(F)(F)F)cc2-c2ccccc2)cc1 [4-[5-Phenyl-3-(trifluoromethyl)-1H-pyrazol-1-yl]benzenesulfonamide] | suppression | suppression | – | –
2 | CCCCC/C=C/C=C1/C(=O)C=C[C@@H]1C/C=C\CCCC(=O)O [15d-PGJ2, 15-deoxy-Δ12,14-prostaglandin J2] | – | – | inhibition | luciferase activity of HPV16 upstream regulatory region [1]: dose dependent inhibition; EGF-mediated induction of HPV16 E7 mRNA (Northern blot) (HPV16 E7 mRNA [2]): inhibition; HPV16 E6 mRNA (Northern blot) (HPV16 E6 mRNA): downregulation
3 | Cc1ccc(-c2cc(C(F)(F)F)nn2-c2ccc(S(N)(=O)=O)cc2)cc1 [Celebrex™, 4-[5-(4-methylphenyl)-3-(trifluoromethyl)-1H-pyrazol-1-yl]benzenesulfonamide] | dose dependent suppression | dose dependent suppression | – | –
4 | CS(=O)(=O)c1ccc(-c2cc(Br)sc2-c2ccc(F)cc2)cc1 [DuP-697, 5-bromo-2-(4-fluorophenyl)-3-(4-(methylsulfonyl)phenyl)thiophene] | suppression | suppression | – | –
5 | CCCCCCCOC(=O)Cc1c(C)n(C(=O)c2ccc(Cl)cc2)c2ccc(OC)cc12 [Indomethacin heptyl ester] | dose dependent suppression | dose dependent suppression | – | –
6 | COc1ccc2c(c1)c(CC(=O)NCCc1ccccc1)c(C)n2C(=O)c1ccc(Cl)cc1 [N-(2-phenylethyl)-indomethacin amide] | dose dependent suppression | dose dependent suppression | – | –
7 | CS(=O)(=O)Nc1ccc([N+](=O)[O-])cc1OC1CCCCC1 [NS-398, N-[2-(cylohexyloxy)-4-nitrophenyl]-methanesulfonamide] | – | – | – | levels of HPV16 E7 mRNA (Northern blot) (HPV16 E7 mRNA [3]): dose dependent suppression
8 | COc1ccc2cc([C@H](C)C(=O)O)ccc2c1 [S-naproxen] | – | – | not | –
9 | NS(=O)(=O)c1ccc(-n2nc(C(F)(F)F)cc2-c2ccc(Cl)cc2)cc1 [SC-236] | dose dependent suppression | dose dependent suppression | – | –
10 | COc1ccc(-n2nc(C(F)(F)F)cc2-c2ccc(Cl)cc2)cc1 [SC-560, 5-(4-chlorophenyl)-1-(4-methoxyphenyl)-3-(trifluoromethyl)-1H-pyrazole] | suppression | suppression | – | cervical intraepithelial neoplasia on repeat biopsy (HPV16 [4]): no evidence of cervical intraepithelial neoplasia
11 | CS(=O)(=O)c1ccc(-n2nc(C(F)(F)F)cc2-c2ccc(F)cc2)cc1 [SC-58125, 4-[5-(4-fluorophenyl)-3-(trifluoromethyl)-1H-pyrazol-1-yl]benzenemethylsulfone] | suppression | suppression | – | –
12 | CS(=O)(=O)c1ccc(C2=C(c3ccccc3)C(=O)OC2)cc1 [Vioxx™, 3-(phenyl)-4-(4-(methylsulfonyl)phenyl)-2-(5H)-furanone] | – | – | – | cervical intraepithelial neoplasia on repeat biopsy (HPV16 [4]): no further evidence of cervical intraepithelial neoplasia
13 | CC(=O)Oc1ccccc1C(=O)O [aspirin] | – | – | not | –
14 | COc1cc(/C=C/C(=O)CC(=O)/C=C/c2ccc(O)c(OC)c2)ccc1O [curcumin] | – | – | – | HPV16 E6 mRNA (Northern blot) (HPV16 E6 mRNA): downregulation
15 | O=C(O)c1ccccc1Nc1cccc(C(F)(F)F)c1 [flufenamic acid] | – | – | inhibition | –
16 | CC(C)Cc1ccc(C(C)C(=O)O)cc1 (stereo not shown) [ibuprofen] | – | – | not | –
17 | COc1ccc2c(c1)c(CC(=O)O)c(C)n2C(=O)c1ccc(Cl)cc1 [indomethacin] | – | – | inhibition | repeat CAT scan, cervical cancer (HPV16 [5]): no evidence of disease
18 | COc1ccc2cc([C@H](C)C(=O)O)ccc2c1 [naproxen] | – | – | inhibition | –
19 | CN1C(C(=O)Nc2ccccn2)=C(O)c2ccccc2S1(=O)=O [piroxicam] | – | – | not | –
20 | Oc1ccc(C=Cc2cc(O)cc(O)c2)cc1 [resveratrol] | – | – | – | cutaneous warts after topical treatment [6]: same results; HPV16 E6 mRNA (Northern blot) (HPV16 E6 mRNA): downregulation
21 | CSc1ccc(/C=C2/C(C)=C(CC(=O)O)c3cc(F)ccc32)cc1 [sulindac sulfide] | – | – | inhibition | EGF-mediated induction of HPV16 E7 mRNA (Northern blot) (HPV16 E7 mRNA [2]): inhibition
22 | CC1=C(CC(=O)O)c2cc(F)ccc2/C1=C\c1ccc(S(C)(=O)=O)cc1 [sulindac sulfone] | – | – | inhibition | –
